≈ marks a conversion by molar mass, not a printed value. Calls of active or inactive are those of the source. The rule behind the calls is not given here.
What was measured:
[1] = tested on: Mycobacterium tuberculosis; test: Antitubercular activity against Mycobacterium tuberculosis H37Rv ATCC 27294 at 6.25 ug/ml after 5 days by MABA method; type: functional; conditions: H37Rv ATCC 27294, 120 h, read-out: GI
[2] = Stability of the compound at pH 4.4 to 8.6 by electronic absorption spectroscopic analysis; type: physicochemical; conditions: buffer
Calf thymus DNA = test: Induction of calf thymus DNA cleavage at 5 uM by ethidium bromide based agarose gel electrophoresis method; type: nucleic-acid assay; conditions: Bos taurus
[3] = Cytotoxicity against African green monkey Vero cells assessed as cell survival at 1.9 ug/ml after 72 hrs by MTS-PMS assay; type: cell-based; conditions: chlorocebus sabaeus, read-out: Survival
[4] = tested on: Mycobacterium tuberculosis; test: Antitubercular activity against Mycobacterium tuberculosis H37Rv ATCC 27294 after 5 days by MABA method; type: functional; conditions: H37Rv ATCC 27294, 120 h
[5] = Dissociation constant, pKa of the compound by potentiometric titration method; type: physicochemical
[6] = Cytotoxicity against African green monkey Vero cells assessed as cell survival at 31.2 ug/ml after 72 hrs by MTS-PMS assay; type: cell-based; conditions: chlorocebus sabaeus, read-out: Survival
[7] = Cytotoxicity against African green monkey Vero cells assessed as cell survival at 3.9 ug/ml after 72 hrs by MTS-PMS assay; type: cell-based; conditions: chlorocebus sabaeus, read-out: Survival
Albumin [8] = molecular target: T1, Albumin (Bos taurus, UniProt P02769); test: Binding affinity to bovine serum albumin assessed as quenching constant in phosphate buffer of pH 7.4 by fluorescence spectroscopic analysis; type: ADME; conditions: cattle, isolated protein
Albumin [9] = molecular target: T1, Albumin; test: Binding affinity to bovine serum albumin assessed as association constant in phosphate buffer of pH 7.4 by fluorescence spectroscopic analysis; type: ADME; conditions: cattle, isolated protein
[10] = Cytotoxicity against African green monkey Vero cells assessed as cell survival at 0.4 ug/ml after 72 hrs by MTS-PMS assay; type: cell-based; conditions: chlorocebus sabaeus, read-out: Survival
Albumin [11] = molecular target: T1, Albumin; test: Binding affinity to bovine serum albumin in pH 7.4 phosphate buffer at 27 degC assessed as Gibbs free energy change by UV-vis spectroscopic analysis; type: ADME; conditions: cattle, isolated protein
Albumin [12] = molecular target: T1, Albumin; test: Binding affinity to bovine serum albumin in pH 7.4 phosphate buffer at 27 degC assessed as association constant by UV-vis spectroscopic analysis; type: ADME; conditions: cattle, isolated protein
Albumin [13] = molecular target: T1, Albumin; test: Binding affinity to bovine serum albumin in pH 7.4 phosphate buffer at 27 degC by UV-vis spectroscopic analysis; type: ADME; conditions: cattle, isolated protein
Albumin [14] = molecular target: T1, Albumin; test: Binding affinity to bovine serum albumin assessed as Stern-Volmer quenching constant in phosphate buffer of pH 7.4 by fluorescence spectroscopic analysis; type: ADME; conditions: cattle, isolated protein
[15] = Stability of the compound at pH 4.4 to 8.2 by electronic absorption spectroscopic analysis; type: physicochemical; conditions: buffer
[16] = Cytotoxicity against African green monkey Vero cells assessed as cell survival at 0.9 ug/ml after 72 hrs by MTS-PMS assay; type: cell-based; conditions: chlorocebus sabaeus, read-out: Survival
[17] = Cytotoxicity against African green monkey Vero cells assessed as cell survival at 0.2 ug/ml after 72 hrs by MTS-PMS assay; type: cell-based; conditions: chlorocebus sabaeus, read-out: Survival

T1 sequence (P02769 whole entry): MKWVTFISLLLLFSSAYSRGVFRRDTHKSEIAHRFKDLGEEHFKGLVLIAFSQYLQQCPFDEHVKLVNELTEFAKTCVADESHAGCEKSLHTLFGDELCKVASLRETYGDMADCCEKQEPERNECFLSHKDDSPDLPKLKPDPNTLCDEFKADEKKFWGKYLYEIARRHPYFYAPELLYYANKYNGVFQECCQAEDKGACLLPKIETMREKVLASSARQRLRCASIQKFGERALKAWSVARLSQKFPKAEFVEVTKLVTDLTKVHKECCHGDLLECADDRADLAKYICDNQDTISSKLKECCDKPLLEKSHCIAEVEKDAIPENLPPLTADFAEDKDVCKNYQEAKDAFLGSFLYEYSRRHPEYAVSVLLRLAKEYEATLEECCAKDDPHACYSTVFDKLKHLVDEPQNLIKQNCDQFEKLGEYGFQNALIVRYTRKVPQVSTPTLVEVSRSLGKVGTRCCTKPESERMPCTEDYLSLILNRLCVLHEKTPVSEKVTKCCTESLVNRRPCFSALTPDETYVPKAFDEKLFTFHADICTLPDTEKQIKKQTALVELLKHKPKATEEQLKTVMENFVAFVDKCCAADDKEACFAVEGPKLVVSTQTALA

| Structure (SMILES) | inhibition of growth at 6.25 µg/mL [1] [%] | Activity (Calf thymus DNA) | MIC [4] [µg/mL] | pKa [5] | also measured |
| --- | --- | --- | --- | --- | --- |
| COc1ccc2oc(=O)cc(CO/N=C(\C)C(C)=O)c2c1 | 94 | Active | 0.19 (≈ 0.657 µM) | 5.8 | Stability [2]: Stable; viability at 72 h, 1.9 ug/ml [3]: 78% |
| CC(=O)/C(C)=N/OCc1cc(=O)oc2cc(Cl)ccc12 | 21 | inactive |  | 5.4 |  |
| CC(=O)/C(C)=N/OCc1cc(=O)oc2ccc(Br)cc12 | 81 | Active |  | 5.4 |  |
| CC(=O)/C(C)=N/OCc1cc(=O)oc2ccc3ccccc3c12 | 90 | Active | 3.12 (≈ 10.1 µM) | 5.6 | viability at 72 h, 31.2 ug/ml [6]: 67% |
| CC(=O)/C(C)=N/OCc1cc(=O)oc2ccc(C)cc12 | 92 | Active | 0.39 (≈ 1.43 µM) | 5.7 | Stability [2]: Stable; viability at 72 h, 3.9 ug/ml [7]: 72% |
| CC(=O)/C(C)=N/OCc1cc(=O)oc2c1ccc1ccccc12 | 87 | inactive |  | 5.6 |  |
| O=c1cc(CSC2=NCCS2)c2cc(Cl)ccc2o1 |  |  | 0.09 (≈ 0.289 µM) |  |  |
| CC(=O)/C(C)=N/OCc1cc(=O)oc2cc(C)ccc12 | 91 | inactive | 0.39 (≈ 1.43 µM) | 5.5 | viability at 72 h, 3.9 ug/ml [7]: 59% |
| CC(=O)/C(C)=N/OCc1cc(=O)oc2cc(C)cc(C)c12 | 97 | Active | 0.04 (≈ 0.139 µM) | 5.5 | Kq (Albumin [8]): 1.07 ×10¹³ /mol/s; Ka (Albumin [9]): 1.37 ×10⁴ L/mol; viability at 72 h, 0.4 ug/ml [10]: 89%; deltaG (Albumin [11]): -5.619 kcal/mol; Ka (Albumin [12]): 1.24 ×10⁴ L/mol; Activity (Albumin [13]): Dose-dependent effect; KSV (Albumin [14]): 6.19 ×10⁴ /mol; Stability [15]: Stable |
| CC(=O)/C(C)=N/OCc1cc(=O)oc2c(C)c(C)ccc12 | 95 | Active | 0.09 (≈ 0.313 µM) | 5.5 | Stability [2]: Stable; viability at 72 h, 0.9 ug/ml [16]: 84% |
| NNC(=O)c1ccncc1 [ISONIAZID] | 100 |  | 0.02 (≈ 0.146 µM) | 1.8 to 9.5 | viability at 72 h, 0.2 ug/ml [17]: 98% |
| CC(=O)/C(C)=N/OCc1cc(=O)oc2ccc(Cl)cc12 | 26 | Active |  | 5.4 |  |

From ChEMBL document CHEMBL4229366, “Synthesis and evaluation of novel coumarin-oxime ethers as potential anti-tubercular agents: Their DNA cleavage ability and BSA interaction study” (Eur J Med Chem, 2018)
